Source: patent US12516056B2, “Compounds for inhibition of janus kinase 1” (MANKIND PHARMA LTD., priority 2019, dated 2026)
Like-named read-outs stand apart in the source and are kept apart here.

Columns and labels:
[1] = test system: STAT5 phosphorylation by GMCSF in TF-1 cells; assay: JAK cellular assay: STAT5 phosphorylation by GMCSF in TF-1 cells (HTRF); assay type: cell-based; settings: Homo sapiens
In short: (§1)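 Phospho-STAT3 (IL-6, 30 ng/ml) and phospho-STAT5 (GMCSF, 5 ng/ml) read by HTRF in lysates after 20 min cytokine exposure, minus unstimulated-cell background. Cells were serum-starved overnight, plated at 120,000/well, given compound 30 min at 37 °C beforehand; DMSO 0.2% final.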

Recombinant TYK2 = target: T1, Recombinant TYK2 (Homo sapiens, UniProt P29597); assay: JAK biochemical assay (LANCE Ultra TR-FRET), TYK2
T1 construct: purchased Carna Biosciences
In short: (§2)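 % inhibition relative to vehicle was derived from TR-FRET signal proportional to ULight-substrate phosphorylation. Reactions used recombinant kinase in HEPES pH 7.5 buffer containing EGTA, MgCl2, DTT and Tween-20.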

Recombinant JAK2 = target: T2, Recombinant JAK2 (Homo sapiens, UniProt O60674); assay: JAK biochemical assay (LANCE Ultra TR-FRET), JAK2
T2 construct: purchased Carna Biosciences
In short: as §2

[2] = test system: IFN-γ production in NK 92 cells by IL-12; assay: IFN-γ production in NK 92 cells by IL-12 (ELISA); settings: NK92, IFN-γ secretion, read-out: Cell Based Assay (μM) NK-92/IL-2/IFN-γ
Recombinant JAK1 = target: T3, Recombinant JAK1 (Homo sapiens, UniProt P23458); assay: JAK biochemical assay (LANCE Ultra TR-FRET), JAK1
T3 construct: purchased Carna Biosciences
In short: as §2

Recombinant JAK3 = target: T4, Recombinant JAK3 (Homo sapiens, UniProt P52333); assay: JAK biochemical assay (LANCE Ultra TR-FRET), JAK3
T4 construct: purchased Carna Biosciences
T4 sequence (P52333 1-1124): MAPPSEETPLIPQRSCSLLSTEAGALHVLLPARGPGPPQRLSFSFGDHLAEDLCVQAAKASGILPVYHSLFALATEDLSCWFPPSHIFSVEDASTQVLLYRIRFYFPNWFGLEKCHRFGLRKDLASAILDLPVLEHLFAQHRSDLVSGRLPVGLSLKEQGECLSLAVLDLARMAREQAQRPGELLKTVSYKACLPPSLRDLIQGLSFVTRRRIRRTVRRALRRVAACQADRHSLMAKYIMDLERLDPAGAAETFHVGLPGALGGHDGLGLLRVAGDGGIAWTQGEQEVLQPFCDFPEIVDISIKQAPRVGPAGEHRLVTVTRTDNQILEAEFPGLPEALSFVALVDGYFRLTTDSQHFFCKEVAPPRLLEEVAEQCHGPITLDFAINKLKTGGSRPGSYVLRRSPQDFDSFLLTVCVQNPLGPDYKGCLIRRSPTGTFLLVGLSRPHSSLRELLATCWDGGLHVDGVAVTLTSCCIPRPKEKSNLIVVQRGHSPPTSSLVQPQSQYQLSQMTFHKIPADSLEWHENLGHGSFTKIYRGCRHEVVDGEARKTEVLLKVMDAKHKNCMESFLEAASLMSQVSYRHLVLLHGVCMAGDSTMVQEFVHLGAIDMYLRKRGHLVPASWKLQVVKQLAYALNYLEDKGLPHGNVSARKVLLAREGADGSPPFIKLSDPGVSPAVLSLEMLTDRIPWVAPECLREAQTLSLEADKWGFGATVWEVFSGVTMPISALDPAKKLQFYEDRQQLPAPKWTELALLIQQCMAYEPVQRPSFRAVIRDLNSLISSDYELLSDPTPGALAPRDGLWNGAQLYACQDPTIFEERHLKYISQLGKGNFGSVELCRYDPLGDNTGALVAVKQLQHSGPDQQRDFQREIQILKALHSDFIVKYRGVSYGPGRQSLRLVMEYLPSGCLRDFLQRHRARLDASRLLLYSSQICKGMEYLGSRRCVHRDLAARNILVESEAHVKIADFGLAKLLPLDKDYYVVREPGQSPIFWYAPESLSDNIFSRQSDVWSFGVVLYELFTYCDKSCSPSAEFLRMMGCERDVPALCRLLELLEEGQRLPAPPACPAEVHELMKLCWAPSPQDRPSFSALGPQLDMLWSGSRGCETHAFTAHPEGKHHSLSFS
In short: as §2

[3] = test system: STAT3 phosphorylation by IL-6 in TF-1 cells; assay: JAK cellular assay: STAT3 phosphorylation by IL-6 in TF-1 cells (HTRF); assay type: cell-based; settings: Homo sapiens
In short: as §1

[4] = test system: STAT5 phosphorylation by IL-2 in HT-2 cells; assay: STAT5 phosphorylation by IL-2 in HT-2 cells (HTRF); assay type: cell-based
In short: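 Readout is HTRF detection of phospho-STAT5 in lysates, corrected for signal from unstimulated cells. Before lysis, HT-2 cells starved in 10% FBS medium received compound for 30 min (0.2% DMSO final, 37 °C), followed by 50 U/ml recombinant human IL-2 for 20 min.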

[5] = test system: IFN-γ production in NK 92 cells by IL-12; assay: IFN-γ production in NK 92 cells by IL-12 (ELISA); settings: NK92, IFN-γ detection from cell supernatants, read-out: Cell based IC50 (μM) NK-92/IL-12*
Protocol: NK 92 cells were cultured in medium without IL-2 for overnight. Next day, 5000 cells per well NK 92 cells were seeded in a 96 well plate. Compounds were added to cells and incubated for 1 hour. Later IL-12, 10 U/ml was added to cells and incubated for overnight. Supernatant was collected from the wells and IFN-7 secretion was measured by using human IFN-7 ELISA kit. Absorbance was measured at 450 nm in BMG FLUOstar. Background signal obtained from cells which were not activated with cytokines, was subtracted from vehicle controls and compound treated wells.

[6] = test system: collagen induced mouse arthritis model; assay: Mouse model of rheumatoid arthritis (collagen induced arthritis); assay type: in vivo; settings: orally dosed, QD for 21 days; reference filgotinib
Excerpt: Rheumatoid arthritis (RA) is an autoimmune disease that can cause joint pain and damage throughout the body. Several cytokines such as IL-6 and IFN-γ activate the Janus kinase/signal transducers and activators of transcription (JAK/STAT) pathway. Inhibition of JAK/STAT pathway is considered as one of the therapeutic options for treatment of rheumatoid arthritis. Rodent models of arthritis can be used to evaluate the therapeutic potential of compounds dosed preventatively or therapeutically. These models include but are not limited to mouse or rat collagen-induced arthritis, rat adjuvant-induced arthritis, and collagen antibody-induced arthritis.
Compounds described herein are tested for JAK/STAT pathway inhibition driven efficacy in collagen induced mouse arthritis model. Compounds were orally dosed, QD for 21 days and at the end of the study, clinical symptoms, body weight and histopathology of ankle and paws were measured. Arthritis score was calculated for the compounds as well as reference standard, filgotinib.

[7] = test system: Imiquimod induced dermatitis in mice; assay: Mouse model of Imiquimod induced psoriasis; assay type: in vivo, Female BALB/c mice; settings: 3% topical, QD; IMQ induced psoriasis, mice
Protocol: Imiquimod (IMQ) induced dermatitis closely resembles human psoriasis lesions not only with regard to phenotypic and histological characteristics but also in the development of the lesions. IMQ is a ligand for toll-like receptor 7 (TLR7) and TLR8, and is a potent immune activator. […] Migration of activated dermal dendritic cells to lymph nodes in skin triggers a sequence of events leading to late phase of psoriasis. Compounds described herein are tested for JAK inhibition driven efficacy in Imiquimod induced dermatitis in mice.
Female BALB/c mice were topically dosed with 3% cream formulation containing test compounds. After four hours of test compound administration, 5% Imiquimod was applied on back skin and right ear for five days. On day 6, post dosing with test compounds, the severity of psoriasis was monitored and graded following Psoriasis Area and Severity Index (PASI). Efficacies of the compounds were evaluated based on PASI score. Redness, thickness and scaling of back skin and ear were assessed among the groups for scoring.

[8] = TF-1 cells, GMCSF 5 ng/ml, pSTAT5 HTRF, read-out: Cell Based Assay (μM) TF-1/GMCSF/pSTAT5
[9] = recombinant TYK2, TR-FRET, read-out: Biochemical Assay (μM) TYK2
[10] = recombinant JAK2, TR-FRET, read-out: Biochemical Assay (μM) JAK2
[11] = recombinant JAK1, TR-FRET, read-out: Biochemical Assay (μM) JAK1
[12] = recombinant JAK3, TR-FRET, read-out: Biochemical Assay (μM) JAK3
[13] = TF-1, TF-1 cells, IL-6 30 ng/ml, pSTAT3 HTRF, read-out: Cell Based Assay (μM) TF-1/IL-6/pSTAT3
[14] = HT2, HT-2 cells, IL-2 50 U/ml, pSTAT5 HTRF, read-out: Cell Based Assay (μM) HT-2/IL-2/pSTAT5

T1 sequence (P29597 whole entry): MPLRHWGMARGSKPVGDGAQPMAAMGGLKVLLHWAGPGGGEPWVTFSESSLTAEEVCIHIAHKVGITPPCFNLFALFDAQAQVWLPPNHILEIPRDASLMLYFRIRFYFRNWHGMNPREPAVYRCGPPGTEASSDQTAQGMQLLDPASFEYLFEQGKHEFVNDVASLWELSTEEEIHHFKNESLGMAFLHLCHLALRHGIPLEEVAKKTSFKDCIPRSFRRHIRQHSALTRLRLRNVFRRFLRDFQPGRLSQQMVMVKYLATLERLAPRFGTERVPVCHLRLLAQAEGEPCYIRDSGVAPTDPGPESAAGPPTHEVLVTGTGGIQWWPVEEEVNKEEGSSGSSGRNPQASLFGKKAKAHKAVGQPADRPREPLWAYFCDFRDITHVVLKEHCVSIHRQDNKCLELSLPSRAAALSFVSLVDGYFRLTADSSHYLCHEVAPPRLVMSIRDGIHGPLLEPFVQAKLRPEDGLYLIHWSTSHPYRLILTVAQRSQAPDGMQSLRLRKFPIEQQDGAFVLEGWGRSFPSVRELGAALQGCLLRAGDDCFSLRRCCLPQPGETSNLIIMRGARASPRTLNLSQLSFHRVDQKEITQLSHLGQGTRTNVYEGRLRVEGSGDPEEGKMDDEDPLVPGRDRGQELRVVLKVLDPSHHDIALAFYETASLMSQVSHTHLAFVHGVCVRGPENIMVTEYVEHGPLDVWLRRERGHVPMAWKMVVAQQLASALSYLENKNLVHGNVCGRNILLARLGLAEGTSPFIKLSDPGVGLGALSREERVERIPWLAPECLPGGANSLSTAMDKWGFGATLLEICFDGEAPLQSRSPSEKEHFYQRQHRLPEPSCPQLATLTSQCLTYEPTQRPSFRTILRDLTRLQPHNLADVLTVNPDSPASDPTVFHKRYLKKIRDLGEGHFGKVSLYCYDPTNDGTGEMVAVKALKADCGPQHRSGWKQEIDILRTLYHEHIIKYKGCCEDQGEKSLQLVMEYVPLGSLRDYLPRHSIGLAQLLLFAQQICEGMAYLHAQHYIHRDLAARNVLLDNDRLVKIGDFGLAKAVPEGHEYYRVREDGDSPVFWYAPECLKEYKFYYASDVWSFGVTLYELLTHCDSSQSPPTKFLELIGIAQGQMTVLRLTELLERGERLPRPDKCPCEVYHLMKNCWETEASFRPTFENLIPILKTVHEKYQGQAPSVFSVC
T3 sequence (P23458 whole entry): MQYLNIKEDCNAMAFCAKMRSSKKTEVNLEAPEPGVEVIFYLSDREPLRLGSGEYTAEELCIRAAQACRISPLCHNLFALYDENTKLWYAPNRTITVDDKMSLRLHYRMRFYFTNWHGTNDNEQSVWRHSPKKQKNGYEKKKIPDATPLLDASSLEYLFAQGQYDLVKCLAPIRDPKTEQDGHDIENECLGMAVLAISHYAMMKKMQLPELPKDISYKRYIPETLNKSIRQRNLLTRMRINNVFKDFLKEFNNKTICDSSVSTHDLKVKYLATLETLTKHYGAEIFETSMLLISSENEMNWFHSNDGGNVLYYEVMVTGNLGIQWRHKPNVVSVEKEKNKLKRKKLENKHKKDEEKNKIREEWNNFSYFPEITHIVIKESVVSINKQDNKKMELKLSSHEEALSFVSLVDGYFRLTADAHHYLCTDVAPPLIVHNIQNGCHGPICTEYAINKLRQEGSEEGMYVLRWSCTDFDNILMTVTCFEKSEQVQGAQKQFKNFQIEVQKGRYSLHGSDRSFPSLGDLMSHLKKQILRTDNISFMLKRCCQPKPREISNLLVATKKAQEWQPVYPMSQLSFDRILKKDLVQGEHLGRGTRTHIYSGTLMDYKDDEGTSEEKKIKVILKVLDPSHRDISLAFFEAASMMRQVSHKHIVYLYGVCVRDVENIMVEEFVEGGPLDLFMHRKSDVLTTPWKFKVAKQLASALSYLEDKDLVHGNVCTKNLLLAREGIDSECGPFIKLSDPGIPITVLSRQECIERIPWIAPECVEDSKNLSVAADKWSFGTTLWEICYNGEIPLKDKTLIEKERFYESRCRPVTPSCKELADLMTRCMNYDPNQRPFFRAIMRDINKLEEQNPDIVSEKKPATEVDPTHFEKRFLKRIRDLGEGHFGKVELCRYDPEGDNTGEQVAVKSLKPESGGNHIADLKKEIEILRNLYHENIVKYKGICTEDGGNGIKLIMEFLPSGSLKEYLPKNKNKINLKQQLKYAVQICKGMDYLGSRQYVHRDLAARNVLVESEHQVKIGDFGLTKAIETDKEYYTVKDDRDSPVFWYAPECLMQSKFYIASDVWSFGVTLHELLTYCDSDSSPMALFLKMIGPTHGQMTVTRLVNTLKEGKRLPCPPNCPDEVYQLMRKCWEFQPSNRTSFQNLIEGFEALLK
T2 sequence (O60674 whole entry): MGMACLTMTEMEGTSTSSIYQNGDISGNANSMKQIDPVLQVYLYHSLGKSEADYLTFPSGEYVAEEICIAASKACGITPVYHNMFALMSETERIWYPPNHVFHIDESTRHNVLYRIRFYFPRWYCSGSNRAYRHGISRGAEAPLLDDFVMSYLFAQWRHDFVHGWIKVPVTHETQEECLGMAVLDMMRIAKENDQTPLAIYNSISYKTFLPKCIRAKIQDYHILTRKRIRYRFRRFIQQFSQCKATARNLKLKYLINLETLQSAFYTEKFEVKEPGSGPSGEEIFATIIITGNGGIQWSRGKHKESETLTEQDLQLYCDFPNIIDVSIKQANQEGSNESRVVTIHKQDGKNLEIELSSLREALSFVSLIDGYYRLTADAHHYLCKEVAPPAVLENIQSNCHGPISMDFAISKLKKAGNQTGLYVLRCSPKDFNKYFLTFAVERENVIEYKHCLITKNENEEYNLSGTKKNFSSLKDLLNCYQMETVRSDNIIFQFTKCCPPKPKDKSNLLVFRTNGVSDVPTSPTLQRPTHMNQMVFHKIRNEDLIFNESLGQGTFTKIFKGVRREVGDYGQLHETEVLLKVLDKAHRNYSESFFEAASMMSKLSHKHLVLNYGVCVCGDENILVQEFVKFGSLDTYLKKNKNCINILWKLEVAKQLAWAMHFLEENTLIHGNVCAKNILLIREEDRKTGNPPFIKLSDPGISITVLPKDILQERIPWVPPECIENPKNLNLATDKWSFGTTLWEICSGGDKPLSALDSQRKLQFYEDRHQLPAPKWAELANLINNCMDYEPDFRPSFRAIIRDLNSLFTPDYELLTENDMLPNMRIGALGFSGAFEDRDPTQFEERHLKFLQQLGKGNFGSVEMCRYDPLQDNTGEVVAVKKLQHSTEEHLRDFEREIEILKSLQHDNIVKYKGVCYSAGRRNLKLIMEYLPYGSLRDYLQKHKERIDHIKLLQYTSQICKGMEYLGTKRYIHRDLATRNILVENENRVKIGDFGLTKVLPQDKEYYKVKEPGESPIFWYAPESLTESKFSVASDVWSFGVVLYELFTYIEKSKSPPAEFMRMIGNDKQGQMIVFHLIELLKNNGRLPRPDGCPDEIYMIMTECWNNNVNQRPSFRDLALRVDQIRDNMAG

| Compound | IC50 [1, 8] | IC50 (Recombinant TYK2; [9]) | IC50 (Recombinant JAK2; [10]) | IC50 [2] | IC50 (Recombinant JAK1; [11]) | IC50 (Recombinant JAK3; [12]) | IC50 [3, 13] | IC50 [4, 14] | also measured |
| --- | --- | --- | --- | --- | --- | --- | --- | --- | --- |
| OC(c1ccc(-n2cc(-c3ccnc4[nH]cnc34)cn2)nc1)C(F)(F)F (stereo not shown) [Example 1169, 1-(6-(4-(3H-imidazo[4,5-b]pyridin-7-yl)-1H-pyrazol-1-yl)pyridin-3-yl)-2,2,2-trifluoroethanol] | > 10 µM | > 1 µM | 0.073 µM | > 10 µM | 0.013 µM | 0.014 µM | 0.45 µM | < 1 µM |  |
| CCN1CCC([C@](O)(c2ccc(-n3cc(-c4ccnc5[nH]cnc45)cn3)nc2)C(F)(F)F)C1 (stereo partly drawn) [Example 1233, (S)-1-(6-(4-(3H-imidazo[4,5-b]pyridin-7-yl)-1H-pyrazol-1-yl)pyridin-3-yl)-1-(1-ethylpyrrolidin-3-yl)-2,2,2-trifluoroethanol] | > 1 µM | < 0.5 µM | < 0.1 µM | > 3 µM | < 0.1 µM | < 0.1 µM | 0.21 µM | > 0.5 µM |  |
| CC(C)N1CCC([C@@](O)(c2ccc(-n3cc(-c4ccnc5[nH]cnc45)cn3)nc2)C(F)(F)F)C1 (stereo partly drawn) [Example 1225, (R)-1-(6-(4-(3H-imidazo[4,5-b]pyridin-7-yl)-1H-pyrazol-1-yl)pyridin-3-yl)-2,2,2-trifluoro-1-(1-isopropylpyrrolidin-3-yl)ethanol] | > 1 µM | > 1 µM | 0.064 µM | > 3 µM | 0.0025 µM | 0.018 µM | 0.16 µM | 0.47 µM |  |
| CC(O)(c1ccc(-n2cc(-c3ccnc4[nH]cnc34)cn2)nc1)C(F)(F)F (stereo not shown) [Example 1125, 2-(6-(4-(3H-imidazo[4,5-b]pyridin-7-yl)-1H-pyrazol-1-yl)pyridin-3-yl)-1,1,1-trifluoropropan-2-ol] | > 10 µM | 0.15 µM | 0.023 µM | > 10 µM | 0.004 µM | 0.009 µM | 0.27 µM | 0.26 µM |  |
| CS(=O)(=O)CC[C@@H](c1ccc(-n2cc(-c3ccnc4[nH]cnc34)cn2)nc1)C(F)(F)F [Example 1181, 7-(1-(5-((S)-1,1,1-trifluoro-4-(methylsulfonyl)butan-2-yl)pyridin-2-yl)-1H-pyrazol-4-yl)-3H-imidazo[4,5-b]pyridine] | > 1 µM | > 1 µM |  |  | < 0.1 µM | < 0.1 µM | > 0.5 µM | > 1 µM | IC50 ([1]; TF-1 cells, GM-CSF stimulation, read-out: Cell based IC50 (μM) TF-1/GM-CSF): > 10 µM; IC50 (Recombinant TYK2; read-out: Biochemical IC50 (nM) TYK2): > 0.001 µM; IC50 (Recombinant JAK2; read-out: Biochemical IC50 (nM) JAK2): 0.105 µM; IC50 (Recombinant JAK1; read-out: Biochemical IC50 (nM) JAK1): 0.015 µM; IC50 [5]: > 10 µM; IC50 (Recombinant JAK3; read-out: Biochemical IC50 (nM) JAK3): 0.042 µM; IC50 ([3]; TF-1, TF-1 cells, IL-6 stimulation, read-out: Cell based IC50 (μM) TF-1/IL-6): 0.35 µM; IC50 ([4]; HT2, HT-2 cells, IL-2 stimulation, read-out: Cell based IC50 (μM) HT-2/IL-2): 0.9 µM; efficacy (arthritis score) in collagen induced mouse arthritis model [6]: very good efficacy |
| O=C(Nc1nc2cccc(-c3ccc(CN4CCS(=O)(=O)CC4)cc3)n2n1)C1CC1 [Filgotinib, filgotinib, reference compound] |  |  |  |  |  |  |  |  | IC50 ([1]; TF-1, read-out: Cell based IC50 (μM) TF-1/GM-CSF): 3.4 µM; back skin thickness [7]: significant decrease; cumulative psoriasis score compared to vehicle [7]: statistically significant decrease; ear thickness [7]: significant decrease; IC50 [5]: > 10 µM; IC50 ([3]; TF-1, read-out: Cell based IC50 (μM) TF-1/IL-6): 0.6 µM; IC50 ([4]; HT2, read-out: Cell based IC50 (μM) HT-2/IL-2): 0.95 µM |
| COC(c1ccc(-n2cc(-c3ccnc4[nH]cnc34)cn2)nc1)C(F)(F)F (stereo not shown) [Example 1119, 7-(1-(5-(2,2,2-trifluoro-1-methoxyethyl)pyridin-2-yl)-1H-pyrazol-4-yl)-3H-imidazo[4,5-b]pyridine] | > 10 µM | > 1 µM | 0.2 µM | 10 µM | 0.03 µM | 0.07 µM | 1.3 µM | > 1 µM |  |
| N#CCc1ccc(-n2cc(-c3ccnc4[nH]cnc34)cn2)nc1 [Example 1078, 2-(6-(4-(3H-imidazo[4,5-b]pyridin-7-yl)-1H-pyrazol-1-yl)pyridin-3-yl)acetonitrile] | > 10 µM | > 1 µM | 0.108 µM | > 10 µM | 0.025 µM | 0.07 µM | 1.05 µM | > 1 µM |  |
